Experimental findings from patent publication EP2350075B1, “SUBSTITUTED IMIDAZO[1,2B]PYRIDAZINE COMPOUNDS AS TRK KINASE INHIBITORS” (Array Biopharma, Inc., priority 2008, dated 2010) are described below.

pIC50: −log10 of the molar value.

The target in this experiment is T1, human TrkA (Homo sapiens, UniProt P04629).
T1 construct: histidine-tagged recombinant human TrkA, cytoplasmic domain; His tag; purchased Invitrogen Corp
T1 sequence (P04629 440-796 limits assumed): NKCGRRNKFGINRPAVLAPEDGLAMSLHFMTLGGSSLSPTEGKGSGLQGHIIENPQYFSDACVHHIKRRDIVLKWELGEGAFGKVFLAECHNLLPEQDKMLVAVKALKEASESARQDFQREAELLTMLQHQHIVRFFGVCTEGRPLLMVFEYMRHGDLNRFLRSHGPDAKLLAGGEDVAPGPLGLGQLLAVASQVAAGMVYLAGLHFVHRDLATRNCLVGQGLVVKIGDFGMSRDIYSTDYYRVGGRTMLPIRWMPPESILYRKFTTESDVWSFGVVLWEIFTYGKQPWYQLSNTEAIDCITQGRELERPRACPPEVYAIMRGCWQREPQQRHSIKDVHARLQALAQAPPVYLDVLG
Nature of the experiment: TrkA ELISA assay. The note with it: 2.5 nM TrkA, 500 µM ATP, 25 minutes at ambient temperature; read-out: TrkA Elisa Enzyme IC50. The format is biochemical. Here is the method: An enzyme-linked immunosorbant assay (ELISA) was used to assess TrkA kinase activity in the presence of inhibitors. […] The assay buffer consisted of 25 mM MOPS pH 7.5, 0.005% (v/v) Triton X-100 and 5 mM MgCl2. The reaction mixture was removed from the plate by washing with PBS containing 0.1% (v/v) Tween 20. […] After the addition of 1M phosphoric acid, the chromogenic substrate color intensity was quantitated via absorbance at 450 nm. IC50 values were calculated using either a 4 or 5-parameter logistic curve fit.
Turning to `CS(=O)(=O)Nc1ccc(C(=O)Nc2cnc3ccc(N4CCC[C@@H]4c4cc(F)ccc4F)nn23)cc1` [Example 4, (R)-N-(6-(2-(2,5-difluorophenyl)pyrrolidin-1-yl)imidazo[1,2-b]pyridazin-3-yl)-4-(methylsulfonamido)benzamide], the negative logarithm of the IC50 (pIC50) is 8.68.

On to `N#Cc1cccc(NC(=O)Nc2cnc3ccc(N4CCC[C@@H]4c4cc(F)ccc4F)nn23)c1` [Example 5, (R)-1-(3-cyanophenyl)-3-(6-(2-(2,5-difluorophenyl)pyrrolidin-1-yl)imidazo[1,2-b]pyridazin-3-yl)urea], for which the pIC50 is 7.13.

Consider `N#Cc1ccc(NC(=O)Nc2cnc3ccc(N4CCC[C@@H]4c4cc(F)ccc4F)nn23)cc1` [Example 6, (R)-1-(4-cyanophenyl)-3-(6-(2-(2,5-difluorophenyl)pyrrolidin-1-yl)imidazo[1,2-b]pyridazin-3-yl)urea], for which the pIC50 is 7.97. Then `O=C(Nc1ccc(Cl)cc1Cl)Nc1cnc2ccc(N3CCC[C@@H]3c3cc(F)ccc3F)nn12` [Example 7, (R)-1-(2,4-dichlorophenyl)-3-(6-(2-(2,5-difluorophenyl)pyrrolidin-1-yl)imidazo[1,2-b]pyridazin-3-yl)urea], with 7.40; and `O=C(Nc1cccc(C(F)(F)F)c1)Nc1cnc2ccc(N3CCC[C@@H]3c3cc(F)ccc3F)nn12` [Example 8, (R)-1-(6-(2-(2,5-difluorophenyl)pyrrolidin-1-yl)imidazo[1,2-b]pyridazin-3-yl)-3-(3-(trifluoromethyl)phenyl)urea], with 6.29; and `COc1ccc(NC(=O)Nc2cnc3ccc(N4CCC[C@@H]4c4cc(F)ccc4F)nn23)cc1` [Example 30, (R)-1-(6-(2-(2,5-difluorophenyl)pyrrolidin-1-yl)imidazo[1,2-b]pyridazin-3-yl)-3-(4-methoxyphenyl)urea], with 8.26. Then `COc1cc(NC(=O)Nc2cnc3ccc(N4CCC[C@@H]4c4cc(F)ccc4F)nn23)cc(OC)c1OC` [Example 32, (R)-1-(6-(2-(2,5-difluorophenyl)pyrrolidin-1-yl)imidazo[1,2-b]pyridazin-3-yl)-3-(3,4,5-trimethoxyphenyl)urea], with 6.76.

For `Cc1noc(C)c1NC(=O)Nc1cnc2ccc(N3CCC[C@@H]3c3cc(F)ccc3F)nn12` [Example 33, (R)-1-(6-(2-(2,5-difluorophenyl)pyrrolidin-1-yl)imidazo[1,2-b]pyridazin-3-yl)-3-(3,5-dimethylisoxazol-4-yl)urea], the pIC50 is 6.05. In the case of `O=C(Nc1cnc2ccc(N3CCCCC3c3cccc(F)c3)nn12)N1CC(O)C1` (stereo not drawn) [Example 43, N-(6-(2-(3-fluorophenyl)piperidin-1-yl)imidazo[1,2-b]pyridazin-3-yl)-3-hydroxyazetidine-1-carboxamide] it was 6.67. For the molecule `CC(C)(C)OC(=O)N1CCN(C(=O)Nc2cnc3ccc(N4CCC[C@@H]4c4cc(F)ccc4F)nn23)CC1(C)C` [Example 48, (R)-tert-butyl 4-(6-(2-(2,5-difluorophenyl)pyrrolidin-1-yl)imidazo[1,2-b]pyridazin-3-ylcarbamoyl)-2,2-dimethylpiperazine-1-carboxylate], the pIC50 was 8.08. For `Cn1cc(C(=O)Nc2cnc3ccc(N4CCC[C@@H]4c4cc(F)ccc4F)nn23)ccc1=O` [Example 56, (R)-N-(6-(2-(2,5-difluorophenyl)pyrrolidin-1-yl)imidazo[1,2-b]pyridazin-3-yl)-1-methyl-6-oxo-1,6-dihydropyridine-3-carboxamide], the negative-log IC50 (pIC50) is 7.99. Then `Cn1nc(C(=O)Nc2cnc3ccc(N4CCC[C@@H]4c4cc(F)ccc4F)nn23)ccc1=O` [Example 57, (R)-N-(6-(2-(2,5-difluorophenyl)pyrrolidin-1-yl)imidazo[1,2-b]pyridazin-3-yl)-1-methyl-6-oxo-1,6-dihydropyridazine-3-carboxamide], with 8.64.
